Source: patent US9598384B2, “3-(2-amino-ethyl)-alkylidene)-thiazolidine-2,4-dione and 1-(2-amino-ethyl)-alkylidene-1,3-dihydro-indol-2-one derivatives as selective sphingosine kinase 2 inhibitors” (VIRGINIA COMMONWEALTH UNIVERSITY, priority 2012, dated 2017)

What was measured:
[1] = tested on: human leukemia U937 cells; test: Cell viability assay in human leukemia U937 cells; assay type: cell-based; conditions: Homo sapiens, U-937; 24 hrs treatment, MTT assay; read-out: IC50 ± SEM, inhibition of U937 cell proliferation
Description: Cells were cultured at a density of 5×10^4 (U937) or 1×10^4 (PC-3, DU145, M12, HT29) cells per well in flat bottomed 96-well plates and treated with various concentrations of test compound at 37° C. (5% CO2). After 24 h, 20 μL of CellTiter 96® Aqueous One Solution Reagent (Promega, Madison, Wis.) was added to each well according to the manufacturer's instructions. After 1 hour, the cell viability was determined by measuring the absorbance at 490 nm using a micro-plate reader.

SphK1 = SphK1 (Homo sapiens, UniProt Q9NYA1); test: SphK1 activity assay; assay type: biochemical; conditions: relative activity vs no inhibitor; compounds at 10 μM (FIGS. 1, 4, 6)
Chain of SphK1 (Q9NYA1 whole entry, species assumed): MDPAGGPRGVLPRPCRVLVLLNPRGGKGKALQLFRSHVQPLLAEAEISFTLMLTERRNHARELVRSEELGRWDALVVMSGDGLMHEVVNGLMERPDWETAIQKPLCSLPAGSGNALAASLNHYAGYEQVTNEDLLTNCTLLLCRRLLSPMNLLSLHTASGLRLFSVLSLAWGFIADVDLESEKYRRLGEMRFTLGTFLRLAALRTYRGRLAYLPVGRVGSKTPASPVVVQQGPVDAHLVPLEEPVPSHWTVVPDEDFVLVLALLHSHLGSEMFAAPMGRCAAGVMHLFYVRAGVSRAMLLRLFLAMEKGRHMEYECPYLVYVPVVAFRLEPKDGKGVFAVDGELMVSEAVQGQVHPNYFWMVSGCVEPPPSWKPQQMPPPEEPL
Description: A) SphK1 and SphK2 activities were measured with 5 μM sphingosine in the absence or presence of the indicated concentrations of K145 or 10 μM DMS. Data are expressed as percentage SphK activity in the absence of inhibitor; B) Effect of K145 (10 μM) on activity of the indicated enzymes was tested by SelectScreen Kinase Profiling from Invitrogen. CaMK11β, Ca2+/calmodulin-dependent protein kinase II; CDK2, cyclin-dependent kinase 2; EGFR, Epidermal Growth Factor Receptor; Fyn, Fyn Kinase (p55); ERK2, extracellular signal-regulated kinase 2; ERK1, extracellular signal-regulated kinase 1; PKA, protein kinase A; PKCα, protein kinase C α; P13K, phosphatidylinositide 3-kinase. Data are expressed as percentage of control activity averaged from 2 independent experiments.
FIG. 3. SphK2 was incubated with indicated compounds at 10 μM, then the activity of SphK2 was determined. The data shown here is a relative activity of SphK2 compared to control (no inhibitor, column labeled Sph in the Figure). 96047 is a known SpK2 inhibitor. A5, B26, K25 and QLA13 are known compounds [Li et al. (2009) Bioorg Med Chem Lett 19: 6042-6046; Liu et al. (2012) Eur J Med Chem 47: 125-137] and were tested for purposes of comparison. “A” and “B” refer to different batches of a compound. FIG. 4. SphK1 was incubated with indicated compounds at 10 μM, then the activity of SphK1 was determined. The data shown here is a relative activity of SphK1 compared to control (no inhibitor, column labeled Sph in the Figure). 96091 is a known Spk1 inhibitor. A5, B26, K25 and QLA13 are as above for […]. “A” and “B” refer to different batches of a compound.
FIG. 6. SphK1 was incubated with indicated compounds at 10 μM, then the activity of SphK2 was determined. The data shown here is a relative activity of SphK2 compared to control (no inhibitor).

SphK2 = target: T1, SphK2 (Homo sapiens, UniProt Q9NRA0); test: SphK2 activity assay (sphingosine substrate, with kinetic study); assay type: biochemical; conditions: relative activity vs no inhibitor; compounds at 10 μM (FIGS. 1, 3, 5)
T1 sequence (Q9NRA0 1-654): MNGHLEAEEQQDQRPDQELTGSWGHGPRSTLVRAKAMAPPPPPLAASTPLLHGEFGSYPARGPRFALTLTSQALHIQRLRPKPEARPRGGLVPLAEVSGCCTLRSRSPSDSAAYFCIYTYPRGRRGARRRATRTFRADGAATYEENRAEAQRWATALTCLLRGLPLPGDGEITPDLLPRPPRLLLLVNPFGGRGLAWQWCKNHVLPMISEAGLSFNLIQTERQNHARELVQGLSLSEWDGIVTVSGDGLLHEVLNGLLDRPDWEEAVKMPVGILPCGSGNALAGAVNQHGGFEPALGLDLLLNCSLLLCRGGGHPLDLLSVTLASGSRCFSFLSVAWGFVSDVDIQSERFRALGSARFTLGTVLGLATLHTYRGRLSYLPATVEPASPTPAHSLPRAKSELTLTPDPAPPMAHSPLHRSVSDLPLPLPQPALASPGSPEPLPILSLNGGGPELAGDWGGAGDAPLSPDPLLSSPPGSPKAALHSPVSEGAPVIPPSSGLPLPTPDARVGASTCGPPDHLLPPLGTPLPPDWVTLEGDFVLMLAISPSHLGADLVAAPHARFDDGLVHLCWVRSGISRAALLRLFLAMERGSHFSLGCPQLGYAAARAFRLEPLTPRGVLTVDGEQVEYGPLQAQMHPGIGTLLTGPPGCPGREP
Description: A) SphK1 and SphK2 activities were measured with 5 μM sphingosine in the absence or presence of the indicated concentrations of K145 or 10 μM DMS. […] Data are expressed as percentage of control activity averaged from 2 independent experiments. Data are expressed as mean value±SEM.
SphK2 was incubated with indicated compounds at 10 μM, then the activity of SphK2 was determined. The data shown here is a relative activity of SphK2 compared to control (no inhibitor, column labeled Sph in the Figure). […] “A” and “B” refer to different batches of a compound.
SphK2 was incubated with indicated compounds at 10 μM, then the activity of SphK2 was determined. The data shown here is a relative activity of SphK2 compared to control (no inhibitor).

U937 cells = test: Cell apoptosis assay, annexin V/PI flow cytometry; assay type: cell-based, human; conditions: 24 hrs treatment
Description: Apoptosis was measured by flow cytometry using annexin V/propidium iodide (PI) as staining reagent. […] The cells were then incubated with annexin V-fluorescein isothiocyanate (FITC) (BD PharMingen, San Diego, Calif.) and 5 μg/mL propidium iodide (PI), and incubated for 15 minutes at room temperature in the dark per the manufacturer's instructions. The samples were analyzed by flow cytometry using a Becton Dickinson FACScan (Becton Dickinson, San Jose, Calif.) within 1 hr to determine the percentage of cells displaying annexin V staining (early apoptosis) or both annexin V and PI staining (late apoptosis).

[2] = tested on: Raf/MEK/ERK and PI3K/Akt signaling pathways; test: Western blot analysis of ERK and Akt phosphorylation; assay type: cell-based; conditions: Western blot, FIGS. 9 and 10
Description: Cells (5×10^5 per ml) were treated with various concentrations of test compound at 37° C. (5% CO2) for 3 hrs, then stimulated with TPA at a final concentration of 200 nM for 20 min. Samples from whole-cell pellets were prepared and 30 μg protein for each condition was subjected to SDS-PAGE, transferred onto a PVDF membrane, and blocked with 5% fat-free milk for 30 min. The membrane is probed with primary antibodies overnight at 4° C. followed by incubation with horseradish peroxidase-labeled anti-mouse IgG (1:5000, BD Bioscience). The immunoreactive bands are detected by chemilluminescence methods (Pierce) and visualized on Kodak Omat film. The following primary antibodies were used: phospho-p44/42 MAPK (ERK1/2, Thr202/Tyr204), p44/42 MAPK, phospho-p90RSK (Thr359/Ser363), RSK1/RSK2/RSK3 (Cell Signaling). Blots were reprobed with antibodies against α-tubulin to ensure equal loading and transfer of proteins.

U937 xenograft [3] = test: U937 xenografts in nude mice, oral administration; conditions: oral gavage daily 15 days; K145 50 mg/kg, tamibarotene 20 mg/kg
Description: BALB/c-nu mice (n=7) with palpable U937 xenograft were treated daily with vehicle, tamibarotene (20 mg/kg), or K145 (50 mg/kg) for 15 days by oral gavage. After treatment, animals were sacrificed and tumors were removed, weighed and images were taken. […] Data are expressed as mean value±SEM. *P<0.05 compared to control group.
In this experiment, K145 was given at 50 mg/kg by oral gavage daily for 15 days and tumor volume and animal weights were measured every other day. Again, tamibarotene (20 mg/kg) was used as positive control.

U937 xenograft [4] = test: U937 xenografts in nude mice, i.p. administration; assay type: in vivo, BALB/c-nu mice; conditions: 15 mg/kg daily i.p.
Description: D) Body weights of mice throughout treatment. Data are expressed as mean value±SD. *P<0.05 compared to control group.
Female nude mice (BALB/c-nu, n=7) were inoculated with 3×10^7 U937 cells subcutaneously in the right flank. After 7 days of implant of U937 cells, mice were treated daily with Vehicle (control), or Tamibarotene (15 mg/Kg, positive control), or Formula III (K145) (15 mg/Kg) by i.p. administration. Tumor size was measured every other day.

| Compound | IC50 [1] [nM] | inhibition of SphK1 activity (in words) (SphK1) | inhibition of SphK2 activity (in words) (SphK2) | also measured |
| --- | --- | --- | --- | --- |
| NCCN1C(=O)C(=CCCC2CCCCC2)c2ccccc21 [S-II-36, 1-(2-aminoethyl)-3-(3-cyclohexylpropylidene)indolin-2-one] | 2700 ± 200 |  |  |  |
| NCCN1C(=O)C(=CCCc2ccc(F)cc2)c2ccccc21 [S-II-39, 1-(2-aminoethyl)-3-(3-(4-fluorophenyl)propylidene)indolin-2-one] | 2690 ± 60 |  |  |  |
| CCCCCCCCCOc1ccc(CC/C=C2\SC(=O)N(CCN)C2=O)cc1 [KLII157] |  | did not inhibit SphK1 or inhibited SphK1 to a lesser extent | inhibited SphK2 selectively |  |
| CCCCCCCCCCCOc1ccc(CC/C=C2\SC(=O)N(CCN)C2=O)cc1 [KLII123] |  | did not inhibit SphK1 or inhibited SphK1 to a lesser extent | inhibited SphK2 selectively |  |
| NCCN1C(=O)C(=CCCC23CC4CC(CC(C4)C2)C3)c2ccccc21 [S-II-73, 3-(3-(3r,5r,7r)-adamantan-1-yl)propylidene)-1-(2-aminoethyl)indolin-2-one] |  | did not inhibit SphK1 or inhibited SphK1 to a lesser extent | inhibited SphK2 selectively |  |
| CCCCOc1ccc(CCC=C2C(=O)N(CCN)c3ccccc32)cc1 [S-II-78, 1-(2-aminoethyl)-3-(3-(4-butoxyphenyl)propylidene)indolin-2-one] | 4600 ± 800 |  |  |  |
| COc1ccc(CCC=C2C(=O)N(CCN)c3ccccc32)cc1 [S-II-71, 1-(2-aminoethyl)-3-(3-(4-methoxyphenyl)propylidene)indolin-2-one] | 920 ± 40 |  |  | apoptotic effects in U937 cells (U937 cells): induced both early and late apoptotic effect; inhibition of Raf/MEK/ERK and PI3K/Akt signaling pathways [2]: inhibit |
| NCCN1C(=O)C(=CCCc2ccc(Cl)cc2)c2ccccc21 [S-II-60, 1-(2-aminoethyl)-3-(3-(4-chlorophenyl)propylidene)indolin-2-one] | 4000 ± 700 |  |  |  |
| CCCCCCCCC=C1C(=O)N(CCN)c2ccccc21 [S-II-129, 1-(2-aminoethyl)-3-nonylideneindolin-2-one] | 2128 ± 6 |  |  |  |
| CC1(C)CCC(C)(C)c2cc(NC(=O)c3ccc(C(=O)O)cc3)ccc21 [tamibarotene, reference compound] |  |  |  | TGI (tumor growth inhibition) (U937 xenograft [3]): 33.37%; TGI (tumor growth inhibition) (U937 xenograft [4]; 17 days): 50.4%; body weights of mice (U937 xenograft [4]; compared with vehicle): caused body weight decreases |
| NCCN1C(=O)C(=CCCC2CC2)c2ccccc21 [S-II-40, 1-(2-aminoethyl)-3-(3-cyclopropylpropylidene)indolin-2-one] | 1160 ± 50 |  |  |  |
| CCCCCCCOc1ccc(CC/C=C2\SC(=O)N(CCNC(=N)N)C2=O)cc1 [K11167] |  | inhibits both Sphk1 and Sphk2 | inhibits both Sphk1 and Sphk2 |  |
| CCCCCCCOc1ccc(CC/C=C2/C(=O)N(CCN)c3ccccc32)cc1 [S-II-104] |  | did not inhibit SphK1 or inhibited SphK1 to a lesser extent | inhibited SphK2 selectively |  |
| CCCCCCCOc1ccc(CCC=C2C(=O)N(CCN)c3ccccc32)cc1 [S-II-103, 1-(2-aminoethyl)-3-(3-(4-(heptyloxy)phenyl)propylidene)indolin-2-one] | 3500 ± 300 | did not inhibit SphK1 or inhibited SphK1 to a lesser extent | inhibited SphK2 selectively | apoptotic effects in U937 cells (U937 cells): mainly induced late apoptotic effects; inhibition of Raf/MEK/ERK and PI3K/Akt signaling pathways [2]: inhibit |
| NCCN1C(=O)C(=CCCc2ccc([N+](=O)[O-])cc2)c2ccccc21 [S-II-61, 1-(2-aminoethyl)-3-(3-(4-nitrophenyl)propylidene)indolin-2-one] | 3600 ± 200 |  |  |  |
| CCOc1ccc(CCC=C2C(=O)N(CCN)c3ccccc32)cc1 [S-II-102, 1-(2-aminoethyl)-3-(3-(4-ethoxyphenyl)propylidene)indolin-2-one] | 950 ± 110 |  |  |  |
